Results published in ChEMBL document CHEMBL6103569, “Discovery of novel fluorine-containing parthenolide analogues as potential antitumor agents” (Eur J Med Chem, 2025).

How the values were obtained:
[1] = Antiproliferative activity against human NCI-H820 cells assessed as inhibition of cell growth incubated for 72 hrs by MTT assay; format: functional, cell-based; conditions: nci-h820
[2] = tested on: Huh-7; experiment: Antiproliferative activity against human Huh-7 cells assessed as inhibition of cell growth incubated for 72 hrs by MTT assay; format: functional, cell-based; conditions: huh-7
[3] = tested on: PANC-1; experiment: Antiproliferative activity against human PANC-1 cells assessed as inhibition of cell growth incubated for 72 hrs by MTT assay; format: functional, cell-based; conditions: panc-1
[4] = Prodrug conversion of the compound in HEPES buffer assessed as (1aR,7aS,10aS,10bS)-1a-methyl-8-methylene-5-(2,2,2-trifluoroethyl)-2,3,6,7,7a,8,10a,10b-octahydrooxireno[2',3':9,10]cyclodeca[1,2-b]furan-9(1aH)-one formation by measuring half life at pH 7.4 by RP-HPLC analysis; format: ADME
[5] = Half life in male BALB/c mouse at 10 mg/kg, iv measured upto 24 hrs by LC-MS/MS analysis; format: ADME, organism-based; conditions: in vivo
[6] = Half life in male BALB/c mouse at 50 mg/kg, po measured upto 24 hrs by LC-MS/MS analysis; format: ADME, organism-based; conditions: in vivo
[7] = Tmax in male BALB/c mouse at 50 mg/kg, po measured upto 24 hrs by LC-MS/MS analysis; format: ADME, organism-based; conditions: in vivo
[8] = Cmax in male BALB/c mouse at 50 mg/kg, po measured upto 24 hrs by LC-MS/MS analysis; format: ADME, organism-based; conditions: in vivo
[9] = Initial plasma concentration in male BALB/c mouse at 10 mg/kg, iv measured upto 24 hrs by LC-MS/MS analysis; format: ADME, organism-based
[10] = AUC (0 to t) in male BALB/c mouse at 10 mg/kg, iv measured upto 24 hrs by LC-MS/MS analysis; format: ADME, organism-based; conditions: in vivo
[11] = AUC (0 to t) in male BALB/c mouse at 50 mg/kg, po measured upto 24 hrs by LC-MS/MS analysis; format: ADME, organism-based; conditions: in vivo
[12] = AUC (0 to infinity) in male BALB/c mouse at 10 mg/kg, iv measured upto 24 hrs by LC-MS/MS analysis; format: ADME, organism-based; conditions: in vivo
[13] = AUC (0 to infinity) in male BALB/c mouse at 50 mg/kg, po measured upto 24 hrs by LC-MS/MS analysis; format: ADME, organism-based; conditions: in vivo
[14] = Volume of distribution in male BALB/c mouse at 10 mg/kg, iv measured upto 24 hrs by LC-MS/MS analysis; format: ADME, organism-based; conditions: in vivo
[15] = Clearance in male BALB/c mouse at 10 mg/kg, iv measured upto 24 hrs by LC-MS/MS analysis; format: ADME, organism-based; conditions: in vivo
[16] = MRT (0 to t) in male BALB/c mouse at 10 mg/kg, iv measured upto 24 hrs by LC-MS/MS analysis; format: ADME, organism-based; conditions: in vivo
[17] = MRT (0 to t) in male BALB/c mouse at 50 mg/kg, po measured upto 24 hrs by LC-MS/MS analysis; format: ADME, organism-based; conditions: in vivo
[18] = Oral bioavailability in male BALB/c mouse at 50 mg/kg measured upto 24 hrs by LC-MS/MS analysis; format: ADME, organism-based; conditions: in vivo
[19] = Acute toxicity in BALB/c mouse assessed as change in body weight at 100 mg/kg, po; format: organism-based; conditions: in vivo
[20] = Acute toxicity in BALB/c mouse assessed as liver damage at 100 mg/kg, po; format: organism-based; conditions: in vivo
[21] = Acute toxicity in BALB/c mouse assessed as spleen damage at 100 mg/kg, po; format: organism-based; conditions: in vivo
[22] = Acute toxicity in BALB/c mouse assessed as lung damage at 100 mg/kg, po; format: organism-based; conditions: in vivo
[23] = Acute toxicity in BALB/c mouse assessed as kidney damage at 100 mg/kg, po; format: organism-based; conditions: in vivo
[24] = Acute toxicity in BALB/c mouse assessed as brain damage at 100 mg/kg, po; format: organism-based; conditions: in vivo
[25] = Acute toxicity in BALB/c mouse assessed as heart damage at 100 mg/kg, po; format: organism-based; conditions: in vivo

With `CN(C)CC1C(=O)O[C@H]2[C@H]1CC/C(CC(F)(F)F)=C\CC[C@@]1(C)O[C@@H]21.O=C(O)/C=C/C(=O)O` (stereo not given in full) the IC50 [1] was 4.18 µM, the IC50 [2] was 3.41 µM and the IC50 [3] was 4.16 µM. For the same compound, the t1/2 [4] was 76.8 min, the half-life [5] was 33.2 min and the half-life [6] was 47.9 min. It also gave a Tmax [7] of 15 min, a Cmax [8] of 1080 ng/mL and a C0 at 24 h [9] of 1450 ng/mL. The AUC(0-t) at 24 h [10] was 438 ng·h/mL, the AUC(0-t) at 24 h [11] was 991 ng·h/mL and the AUC(0-inf) [12] was 444 ng·h/mL. For the same compound, the AUC(0-inf) [13] was 991 ng·h/mL, the Vd [14] was 12.1 L/kg and the clearance [15] was 253 mL/min/kg. The MRT last at 24 h [16] was 24.1 min, the MRT last at 24 h [17] was 49.7 min and the bioavailability [18] was 45.2%. The Activity [19] was “Non-toxic”, the Activity [20] was “Non-toxic” and the Activity [21] was “Non-toxic”. For the same compound, the Activity [22] was “Non-toxic”, the Activity [23] was “Non-toxic” and the Activity [24] was “Non-toxic”. For the same compound, the Activity [25] was “Non-toxic”.
